The subject of experiment [1] is PKB Ser473 phosphorylation in Rat1-myr-HA-p110 beta cells. The experiment can be described thus: Reverse protein array, PKB Ser473 phosphorylation in Rat1-myr-HA-p110 beta cells. It counts as cell-based. The note with it: Rattus norvegicus, 0.5 h, 30 minutes compound incubation, read-out: p-PKB/IC50_beta.
The test system of experiment [2] is PKB Ser473 phosphorylation in Rat1-myr-HA-p110 alpha cells. The experiment can be described thus: Reverse protein array, PKB Ser473 phosphorylation in Rat1-myr-HA-p110 alpha cells. The experiment is classed as cell-based. The settings on record: Rattus norvegicus, 0.5 h, 30 minutes compound incubation, read-out: p-PKB/IC50_alpha.

These results are taken from patent US20100311714A1, “1H-IMIDAZO[4,5-c]QUINOLINONE COMPOUNDS” (priority 2009, published 2010).

Each structure is given as a SMILES string. Where only a bound is given, the exact number is not on record here.

As for `CNc1cc(-c2ccc3ncc4c(c3c2)n(-c2cccnc2C)c(=O)n4C)cnc1C` [Example 2.32, 3-Methyl-8-(6-methyl-5-methylamino-pyridin-3-yl)-1-(2-methyl-pyridin-3-yl)-1,3-dihydro-imidazo[4,5-c]quinolin-2-one], the IC50 in experiment [1] is 0.006 µM; in experiment [2] it was less than 0.00457 µM.

`Cc1cccnc1-n1c(=O)n(C)c2cnc3ccc(-c4ccc(C(N)=O)cc4)cc3c21` [Example 3.3, 4-[3-Methyl-1-(3-methyl-pyridin-2-yl)-2-oxo-2,3-dihydro-1H-imidazo[4,5-c]quinolin-8-yl]-benzamide]: the results for the IC50 in experiment [1] and in experiment [2] were 0.259 µM and 0.178 µM, respectively.

As for `CNc1ncc(-c2ccc3ncc4c(c3c2)n(-c2ncccc2C)c(=O)n4C)cn1` [Example 3.4, 3-Methyl-8-(2-methylamino-pyrimidin-5-yl)-1-(3-methyl-pyridin-2-yl)-1,3-dihydro-imidazo[4,5-c]quinolin-2-one], the IC50 in experiment [1] amounted to 0.527 µM; in experiment [2], 0.226 µM.

For `CNC(=O)c1ccc(-c2ccc3ncc4c(c3c2)n(-c2ncccc2C)c(=O)n4C)cc1` [Example 3.5, N-Methyl-4-[3-methyl-1-(3-methyl-pyridin-2-yl)-2-oxo-2,3-dihydro-1H-imidazo[4,5-c]quinolin-8-yl]-benzamide], the IC50 in experiment [1] came out at 0.131 µM; in experiment [2], 0.0927 µM.

As for `CCOc1ccc(-c2ccc3ncc4c(c3c2)n(-c2ncccc2C)c(=O)n4C)cn1` [Example 3.6, 8-(6-Ethoxy-pyridin-3-yl)-3-methyl-1-(3-methyl-pyridin-2-yl)-1,3-dihydro-imidazo[4,5-c]quinolin-2-one], the IC50 in experiment [1] was found to be 0.546 µM; in experiment [2], 0.15 µM.

In the case of `Cc1cccnc1-n1c(=O)n(C)c2cnc3ccc(-c4ccc(CO)nc4)cc3c21` [Example 3.9, 8-(6-Hydroxymethyl-pyridin-3-yl)-3-methyl-1-(3-methyl-pyridin-2-yl)-1,3-dihydro-imidazo[4,5-c]quinolin-2-one], the IC50 in experiment [1] turned out to be 0.689 µM; in experiment [2] it was 0.301 µM.

For `COc1ccc(-c2ccc3ncc4c(c3c2)n(-c2ncccc2C)c(=O)n4C)cc1OC` [Example 3.10, 8-(3,4-Dimethoxy-phenyl)-3-methyl-1-(3-methyl-pyridin-2-yl)-1,3-dihydro-imidazo[4,5-c]quinolin-2-one], the IC50 was determined as 0.516 µM in experiment [1] and 0.0783 µM in experiment [2].

Take `Cc1cccnc1-n1c(=O)n(C)c2cnc3ccc(-c4cnc(N)c(C(F)(F)F)c4)cc3c21` [Example 3.12, 8-(6-Amino-5-trifluoromethyl-pyridin-3-yl)-3-methyl-1-(3-methyl-pyridin-2-yl)-1,3-dihydro-imidazo[4,5-c]quinolin-2-one]: the IC50 was 0.172 µM in experiment [1] and 0.0137 µM in experiment [2].

In the case of `Cc1ccncc1-n1c(=O)n(C)c2cnc3ccc(-c4ccc(CO)nc4)cc3c21` [Example 4.1, 8-(6-Hydroxymethyl-pyridin-3-yl)-3-methyl-1-(4-methyl-pyridin-3-yl)-1,3-dihydro-imidazo[4,5-c]quinolin-2-one], the IC50 in experiment [1] came to 0.694 µM; in experiment [2], 0.542 µM.

For `CCOc1ccc(-c2ccc3ncc4c(c3c2)n(-c2cnccc2C)c(=O)n4C)cn1` [Example 4.2, 8-(6-Ethoxy-pyridin-3-yl)-3-methyl-1-(4-methyl-pyridin-3-yl)-1,3-dihydro-imidazo[4,5-c]quinolin-2-one], the IC50 in experiment [1] stood at 0.149 µM; in experiment [2], 0.0473 µM.

Turning to `COc1ccc(-c2ccc3ncc4c(c3c2)n(-c2cnccc2C)c(=O)n4C)cn1` [Example 4.3, 8-(6-Methoxy-pyridin-3-yl)-3-methyl-1-(4-methyl-pyridin-3-yl)-1,3-dihydro-imidazo[4,5-c]quinolin-2-one], the IC50 in experiment [1] stood at 0.363 µM; in experiment [2] it was 0.203 µM.

Turning to `Cn1c(=O)n(-c2cccnc2)c2c3cc(-c4ccc(CO)nc4)ccc3ncc21` [Example 5.1, 8-(6-Hydroxymethyl-pyridin-3-yl)-3-methyl-1-pyridin-3-yl-1,3-dihydro-imidazo[4,5-c]quinolin-2-one], the figures for the IC50 in experiment [1] and in experiment [2] were 0.166 µM and 0.167 µM, respectively.

As to `CN(C)c1ccc(-c2ccc3ncc4c(c3c2)n(-c2cccnc2)c(=O)n4C)cn1` [Example 5.3, 8-(6-Dimethylamino-pyridin-3-yl)-3-methyl-1-pyridin-3-yl-1,3-dihydro-imidazo[4,5-c]quinolin-2-one], the IC50 in experiment [1] was 0.185 µM; in experiment [2], 0.0922 µM.

On to `CCOc1ccc(-c2ccc3ncc4c(c3c2)n(-c2cccnc2F)c(=O)n4C)cn1` [Example 6.1, 8-(6-Ethoxy-pyridin-3-yl)-1-(2-fluoro-pyridin-3-yl)-3-methyl-1,3-dihydro-imidazo[4,5-c]quinolin-2-one], for which the IC50 in experiment [1] stood at 0.0562 µM; in experiment [2], 0.0315 µM.

Take `Cn1c(=O)n(-c2cccnc2F)c2c3cc(-c4cnc(N)c(C(F)(F)F)c4)ccc3ncc21` [Example 6.2, 8-(6-Amino-5-trifluoromethyl-pyridin-3-yl)-1-(2-fluoro-pyridin-3-yl)-3-methyl-1,3-dihydro-imidazo[4,5-c]quinolin-2-one]: the IC50 in experiment [1] was found to be 0.0102 µM; in experiment [2], 0.00457 µM.

`Cc1nc(F)ccc1-n1c(=O)n(C)c2cnc3ccc(-c4cnc(N)c(C(F)(F)F)c4)cc3c21` [Example 7.1, 8-(6-Amino-5-trifluoromethyl-pyridin-3-yl)-1-(6-fluoro-2-methyl-pyridin-3-yl)-3-methyl-1,3-dihydro-imidazo[4,5-c]quinolin-2-one]: the IC50 in experiment [1] came out at 0.0134 µM; in experiment [2] it was 0.0118 µM.

Take `Cc1nc(F)ccc1-n1c(=O)n(C)c2cnc3ccc(-c4cnc5c(ccn5C)c4)cc3c21` [Example 7.2, 1-(6-Fluoro-2-methyl-pyridin-3-yl)-3-methyl-8-(1-methyl-1H-pyrrolo[2,3-b]pyridin-5-yl)-1,3-dihydro-imidazo[4,5-c]quinolin-2-one]: the IC50 in experiment [1] was 0.0295 µM; in experiment [2] it was 0.0121 µM.

With `CCOc1ccc(-c2ccc3ncc4c(c3c2)n(-c2ccc(F)nc2C)c(=O)n4C)cn1` [Example 7.3, 8-(6-Ethoxy-pyridin-3-yl)-1-(6-fluoro-2-methyl-pyridin-3-yl)-3-methyl-1,3-dihydro-imidazo[4,5-c]quinolin-2-one], the values for the IC50 in experiment [1] and in experiment [2] were 0.0438 µM and 0.0422 µM, respectively.

On to `CNc1ccc(-c2ccc3ncc4c(c3c2)n(-c2ccc(F)nc2C)c(=O)n4C)cn1` [Example 7.4, 1-(6-Fluoro-2-methyl-pyridin-3-yl)-3-methyl-8-(6-methylamino-pyridin-3-yl)-1,3-dihydro-imidazo[4,5-c]quinolin-2-one], for which the IC50 was 0.0086 µM in experiment [1] and 0.00718 µM in experiment [2].

With `CCOc1cc(-c2ccc3ncc4c(c3c2)n(-c2ccc(F)nc2C)c(=O)n4C)cnc1COC` [Example 7.5, 8-(5-Ethoxy-6-methoxymethyl-pyridin-3-yl)-1-(6-fluoro-2-methyl-pyridin-3-yl)-3-methyl-1,3-dihydro-imidazo[4,5-c]quinolin-2-one], the values for the IC50 in experiment [1] and in experiment [2] were 0.0821 µM and 0.0315 µM, respectively.

For `Cc1nc(F)ccc1-n1c(=O)n(C)c2cnc3ccc(-c4cncc(C(C)(C)O)c4)cc3c21` [Example 7.8, 1-(6-Fluoro-2-methyl-pyridin-3-yl)-8-[5-(1-hydroxy-1-methyl-ethyl)-pyridin-3-yl]-3-methyl-1,3-dihydro-imidazo[4,5-c]quinolin-2-one], the IC50 in experiment [1] is 0.0686 µM; in experiment [2], 0.0145 µM.

On to `CCOc1ccc(-c2ccc3ncc4c(c3c2)n(-c2ccc(N3CCNCC3)nc2OC)c(=O)n4C)cn1` [Example 9.1, 8-(6-Ethoxy-pyridin-3-yl)-1-(2-methoxy-6-piperazin-1-yl-pyridin-3-yl)-3-methyl-1,3-dihydro-imidazo[4,5-c]quinolin-2-one], for which the IC50 in experiment [1] stood at 0.0333 µM; in experiment [2] it was 0.0184 µM.

Regarding `COc1nc(N2CCNCC2)ccc1-n1c(=O)n(C)c2cnc3ccc(-c4cnc(N)c(C(F)(F)F)c4)cc3c21` [Example 9.2, 8-(6-Amino-5-trifluoromethyl-pyridin-3-yl)-1-(2-methoxy-6-piperazin-1-yl-pyridin-3-yl)-3-methyl-1,3-dihydro-imidazo[4,5-c]quinolin-2-one], the IC50 in experiment [1] stood at 0.0206 µM; in experiment [2] it was 0.0339 µM.

As for `Cc1nc(N2CCN(C)C(=O)C2)ccc1-n1c(=O)n(C)c2cnc3ccc(-c4cnc(N)c(C(F)(F)F)c4)cc3c21` [Example 21.1, 8-(6-Amino-5-trifluoromethyl-pyridin-3-yl)-3-methyl-1-[2-methyl-6-(4-methyl-3-oxo-piperazin-1-yl)-pyridin-3-yl]-1,3-dihydro-imidazo[4,5-c]quinolin-2-one], the IC50 was 0.0053 µM in experiment [1] and less than 0.00457 µM in experiment [2].

As for `CCOc1cc(-c2ccc3ncc4c(c3c2)n(-c2ccc(OCCOC)nc2C)c(=O)n4C)cnc1COC` [Example 22.1, 8-(5-Ethoxy-6-methoxymethyl-pyridin-3-yl)-1-[6-(2-methoxy-ethoxy)-2-methyl-pyridin-3-yl]-3-methyl-1,3-dihydro-imidazo[4,5-c]quinolin-2-one], the figures for the IC50 in experiment [1] and in experiment [2] were 0.0667 µM and 0.0177 µM, respectively.

As to `Cc1nc(N2CCC2)ccc1-n1c(=O)n(C)c2cnc3ccc(-c4cncc(N5CCC5)c4)cc3c21` [Example 23.1, 1-(6-Azetidin-1-yl-2-methyl-pyridin-3-yl)-8-(5-azetidin-1-yl-pyridin-3-yl)-3-methyl-1,3-dihydro-imidazo[4,5-c]quinolin-2-one], the figures for the IC50 in experiment [1] and in experiment [2] were 0.0151 µM and 0.0211 µM, respectively.

In the case of `COCc1ncc(-c2ccc3ncc4c(c3c2)n(-c2ccc(N3CCC3)nc2C)c(=O)n4C)cc1OC(C)C` [Example 23.2, 1-(6-Azetidin-1-yl-2-methyl-pyridin-3-yl)-8-(5-isopropoxy-6-methoxymethyl-pyridin-3-yl)-3-methyl-1,3-dihydro-imidazo[4,5-c]quinolin-2-one], the figures for the IC50 in experiment [1] and in experiment [2] were 0.0534 µM and 0.0248 µM, respectively.
